The values that follow come from patent US20130253047A1 (priority 2006, published 2013).

In the assay the test system is H5N1. It counts as cell-based.

As to `O=C(O[C@@H]1Cc2c(O)cc(O)cc2O[C@@H]1c1cc(=O)c(O)c2c(O)c(O)cc([C@H]3Oc4cc(O)cc(O)c4C[C@H]3O)c2c1)c1cc(O)c(O)c(O)c1` [theaflavin-3 gallate], the “inhibition of H5N1 infections in mammalian cells by blocking the attachment and entry into the cells” value is given as “inhibits H5N1 infections in mammalian cells”.
To `O=c1c(O)cc([C@H]2Oc3cc(O)cc(O)c3C[C@H]2O)cc2c([C@H]3Oc4cc(O)cc(O)c4C[C@H]3O)cc(O)c(O)c12` [theaflavin] belongs “inhibits H5N1 infections in mammalian cells”.
Under (−)-epigallocatechin gallate stands “inhibits H5N1 infections in mammalian cells”; under theaflavin-3,3′-digallate, “inhibits H5N1 infections in mammalian cells”.
As for theaflavin-3′-gallate, the “inhibition of H5N1 infections in mammalian cells by blocking the attachment and entry into the cells” value is recorded as “inhibits H5N1 infections in mammalian cells”.
